The target of test [1] is T1, AMPK α2β2γ3 (Homo sapiens, UniProt O43741+P54646+Q9UGI9).
T1 construct: Recombinant full-length AMPK heterotrimeric complexes α1β1γ1, α1β2γ1, α1β2γ3, α2β1γ1, α2β2γ1 and α2β2γ3 were cloned; 6X-His (N); made in house; host or cells: E. coli BL21-CodonPlus (DE3)-RIPL
Briefly: Protection of pAMPK α-pThr172/174 from PP2Aα (slot-blot ELISA). The test is classed as biochemical. As for the experimental part: (§1) Test compound was previously diluted in half-log increments, starting at 40 μM in 100% DMSO, diluted 10-fold in assay buffer and dispensed into a microtitre plate. After 15 min at room temperature, phosphatase was added to the mixture and the reaction was allowed to proceed for 60 min at room temperature. Reactions were quenched by the addition of okadaic acid, and transferred to PVDF membrane using the slot-blot apparatus and subjected to immunoblotting. Phosphatase sensitivity was similarly assessed by subjecting pAMPK to a phosphatase (PP2Aα) treatment using various concentrations and incubation times. The concentration of phosphatase was expressed as nmol of PP2Aα per minute per nmol of pAMPK in the reaction.
(§2) The membrane was blocked with Western Blot Blocking Buffer Reagent (Li-Cor) for 3–4 h at room temperature. […] Following the wash step, goat anti-rabbit 800CW (Rockland) at 1:10000 dilution was used as a secondary antibody. Blots were visualized using the Li-Cor Odyssey infrared imaging system and signal quantification was performed using the Odyssey software.
(§3) Data are mean (n=2), and curves were generated using best-fit values.
(In general: In an ELISA, binding on a coated surface is turned into a signal by an enzyme label.)

For test [2], the target named is T2, AMPK α2β1γ1 (Homo sapiens, UniProt P54619+P54646+Q9Y478).
T2 construct: Recombinant full-length AMPK heterotrimeric complexes α1β1γ1, α1β2γ1, α1β2γ3, α2β1γ1, α2β2γ1 and α2β2γ3 were cloned; 6X-His (N); made in house; host or cells: E. coli BL21-CodonPlus (DE3)-RIPL
The test is described as above. The test is classed as biochemical. The procedure:
as §1, §2, §3

The target of test [3] is T3, AMPK α1β2γ1 (Homo sapiens, UniProt O43741+P54619+Q13131).
T3 construct: Recombinant full-length AMPK heterotrimeric complexes α1β1γ1, α1β2γ1, α1β2γ3, α2β1γ1, α2β2γ1 and α2β2γ3 were cloned; 6X-His (N); made in house; host or cells: E. coli BL21-CodonPlus (DE3)-RIPL
Described as above. In kind it is biochemical. As for the experimental part:
as §1, §2, §3

For test [4], the target named is T4, AMPK α1β2γ3 (Homo sapiens, UniProt O43741+Q13131+Q9UGI9).
T4 construct: Recombinant full-length AMPK heterotrimeric complexes α1β1γ1, α1β2γ1, α1β2γ3, α2β1γ1, α2β2γ1 and α2β2γ3 were cloned; 6X-His (N); made in house; host or cells: E. coli BL21-CodonPlus (DE3)-RIPL
The test is described as above. In kind it is biochemical. As for the experimental part: as §1, §2, §3

Test [5] addresses T5, AMPK α2β2γ1 (Homo sapiens, UniProt O43741+P54619+P54646).
T5 construct: Recombinant full-length AMPK heterotrimeric complexes α1β1γ1, α1β2γ1, α1β2γ3, α2β1γ1, α2β2γ1 and α2β2γ3 were cloned; 6X-His (N); made in house; host or cells: E. coli BL21-CodonPlus (DE3)-RIPL
The description is as above. In kind it is biochemical. The procedure:
as §1, §2, §3

Test [6] has as its target T6, AMPK α1β1γ1 (Homo sapiens, UniProt P54619+Q13131+Q9Y478).
T6 construct: Recombinant full-length AMPK heterotrimeric complexes α1β1γ1, α1β2γ1, α1β2γ3, α2β1γ1, α2β2γ1 and α2β2γ3 were cloned; 6X-His (N); made in house; host or cells: E. coli BL21-CodonPlus (DE3)-RIPL
Described as above. The test is classed as biochemical. The procedure:
as §1, §2, §3

The target of test [7] is T7, BAP-tagged AMPK α1β1γ1 (Homo sapiens, UniProt P54619+Q13131+Q9Y478).
T7 construct: Recombinant full-length AMPK heterotrimeric complexes α1β1γ1, α1β2γ1, α1β2γ3, α2β1γ1, α2β2γ1 and α2β2γ3 were cloned; 6X-His (N); AviTag (BAP); made in house; host or cells: E. coli (co-expressed with BirA)
Set-up: method as in PMID 25066137. Conditions: reported previously; cited from earlier work.

In test [8] the target is T7, BAP-tagged AMPK α1β1γ1. The test can be described thus: SPR direct binding (Biacore). As for the experimental part: (§4) SPR experiments were performed on a Biacore™ 3000 instrument (GE Healthcare). BAP-tagged AMPK isoform (α1β1γ1, α1β2γ1, α2β2γ1, α2β2γ3) was captured on to a streptavidin sensor chip to levels ranging from 4000 to 6000 RU. […] Binding responses were processed using Scrubber 2 (BioLogic Software Pty Ltd) to zero, x-align, double reference and corrected for excluded volume effect of DMSO in the data. […] The compound was injected at a flow rate of 50 μl/min with total contact time of 120 s and dissociation time of 600 s. Rate parameters (kon, koff) and corresponding dissociation constant(KD=koff/kon) were determined by globally fitting all of the experimental data to a simple 1:1 interaction model using Biaeval software (GE Healthcare). To determine nt binding, 10 concentrations with 2-fold dilutions were tested in duplicate. The highest concentration tested was 2 mM. The compound was injected at a flow rate of 50 μl/min with total contact time of 120 s and dissociation time of 300 s. Equilibrium dissociation constant (KD) was determined using a steady-state affinity algorithm available within Scrubber.
(§5) We then compared the binding of nts (AMP, ADP and ATP) to α1β1γ1, α1β2γ1, α2β2γ1 and α2β2γ3 isoforms in the presence and absence of Mg^2+ and Stau, using SPR technique. […]

The target of test [9] is T8, BAP-tagged AMPK α2β2γ1 (Homo sapiens, UniProt O43741+P54619+P54646).
T8 construct: Recombinant full-length AMPK heterotrimeric complexes α1β1γ1, α1β2γ1, α1β2γ3, α2β1γ1, α2β2γ1 and α2β2γ3 were cloned into a tricistronic vector system; 6X-His (N); made in house; host or cells: E. coli BL21-CodonPlus (DE3)-RIPL, co-expressed with BirA
The test can be described thus: SPR direct binding (Biacore). As for the experimental part:
as §4, §5
A general note: In SPR one partner is held on a chip, and binding of the other changes the refractive index at the surface.

Test [10] deals with T1, AMPK α2β2γ3. Briefly: TR-FRET allosteric activation assay. In kind it is biochemical. Conditions: 50 nM Cy5-SAMS, ATP at Km. The source says:
(§6) After excitation at 320 nm, the energy from the Europium donor is transferred to the Cy5 acceptor which in turn generates light at 665 nm. The intensity of the signal is proportional to the level of AMPK-mediated Cy5 substrate phosphorylation. […] Non-specific emission obtained from samples containing all the reagents except enzyme was used to normalize the values.
(§7) The basal kinase activity of the pAMPK isoforms in the absence of activator was normalized to zero (baseline) and the changes in the enzyme activity in the presence of activator at different concentrations was compared with the basal activity.
(In general: In TR-FRET formats the signal depends on donor and acceptor labels being close together.)

Test [11] has as its target T3, AMPK α1β2γ1. The test can be described thus: TR-FRET allosteric activation assay. The test is classed as biochemical. To be noted: 50 nM Cy5-SAMS, ATP at Km.
Description: as §6, §7

Test [12] has as its target T4, AMPK α1β2γ3. Briefly: TR-FRET allosteric activation assay. The test is classed as biochemical. Conditions: 50 nM Cy5-SAMS, ATP at Km.
Description: as §6, §7

Test [13] concerns the target T5, AMPK α2β2γ1. The test can be described thus: TR-FRET allosteric activation assay. In kind it is biochemical. Conditions: 50 nM Cy5-SAMS, ATP at Km.
Description: as §6, §7

Test [14] addresses T6, AMPK α1β1γ1. The test can be described thus: TR-FRET allosteric activation assay. In kind it is biochemical. To be noted: 50 nM Cy5-SAMS, ATP at Km.
Description: as §6, §7

Test [15] deals with T9, BAP-tagged AMPK α1β2γ1 (Homo sapiens, UniProt O43741+P54619+Q13131).
T9 construct: Recombinant full-length AMPK heterotrimeric complexes α1β1γ1, α1β2γ1, α1β2γ3, α2β1γ1, α2β2γ1 and α2β2γ3 were cloned into a tricistronic vector system; 6X-His (N); made in house; host or cells: E. coli BL21-CodonPlus (DE3)-RIPL, co-expressed with BirA
Briefly: SPR direct binding (Biacore). The procedure: as §4
(§8) We then compared the binding of nts (AMP, ADP and ATP) to α1β1γ1, α1β2γ1, α2β2γ1 and α2β2γ3 isoforms in the presence and absence of Mg^2+ and Stau, using SPR technique.

In test [16] the target is T10, BAP-tagged AMPK α2β2γ3 (Homo sapiens, UniProt O43741+P54646+Q9UGI9).
T10 construct: Recombinant full-length AMPK heterotrimeric complexes α1β1γ1, α1β2γ1, α1β2γ3, α2β1γ1, α2β2γ1 and α2β2γ3 were cloned into a tricistronic vector system; 6X-His (N); made in house; host or cells: E. coli BL21-CodonPlus (DE3)-RIPL, co-expressed with BirA
Briefly: SPR direct binding (Biacore). The procedure: as §4, §8

Where [17] appears, read: activator concentration for half-maximal protection of pThr172/174, 10 nM AMPK, 40 nM PP2Aα, read-out: Protection pEC50 (converted).
Setting [18] is: extent of protection (Figure 7).
Where [19] appears, read: presence of Mg2+ and 25 nM Stau, cell spans KD1 and KD2, read-out: KD (single measurable binding affinity).
The mark [20] stands for this setting: presence of Mg2+, cell spans KD1 and KD2, read-out: KD (single measurable binding affinity).
Where [21] appears, read: tighter site, absence of Mg2+ and Stau, read-out: KD1.
Where [22] appears, read: weaker site, absence of Mg2+ and Stau, read-out: KD2.

The structures appear in SMILES notation. Entries after “also recorded” stand apart in the source; their conditions may differ. Like-named read-outs stand apart in the source and are kept apart here. Some results are limits rather than exact numbers.

T7 sequence (Q13131 whole entry): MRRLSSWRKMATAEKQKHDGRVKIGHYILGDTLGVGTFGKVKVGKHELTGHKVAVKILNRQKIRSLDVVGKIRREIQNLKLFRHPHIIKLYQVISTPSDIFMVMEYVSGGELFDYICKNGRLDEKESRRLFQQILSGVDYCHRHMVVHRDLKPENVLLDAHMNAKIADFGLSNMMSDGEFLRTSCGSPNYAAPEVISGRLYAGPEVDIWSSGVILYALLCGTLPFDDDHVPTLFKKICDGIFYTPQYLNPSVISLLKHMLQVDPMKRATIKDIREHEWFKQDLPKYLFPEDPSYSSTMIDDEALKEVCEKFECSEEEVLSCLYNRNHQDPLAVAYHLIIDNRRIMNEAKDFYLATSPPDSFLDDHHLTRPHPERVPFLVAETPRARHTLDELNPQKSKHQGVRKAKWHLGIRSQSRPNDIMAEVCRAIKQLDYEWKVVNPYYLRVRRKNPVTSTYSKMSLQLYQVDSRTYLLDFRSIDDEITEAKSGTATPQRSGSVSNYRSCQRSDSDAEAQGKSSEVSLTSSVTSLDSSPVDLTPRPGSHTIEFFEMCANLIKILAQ
T7 sequence (Q9Y478 whole entry): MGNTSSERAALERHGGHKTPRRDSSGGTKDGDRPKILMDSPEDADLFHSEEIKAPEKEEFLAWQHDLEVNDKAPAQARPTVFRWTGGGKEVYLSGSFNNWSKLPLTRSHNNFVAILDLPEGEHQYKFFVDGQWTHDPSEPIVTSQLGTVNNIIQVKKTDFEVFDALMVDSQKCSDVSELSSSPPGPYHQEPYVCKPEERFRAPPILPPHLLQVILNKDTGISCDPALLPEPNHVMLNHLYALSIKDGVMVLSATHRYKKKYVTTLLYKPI
T7 sequence (P54619 whole entry): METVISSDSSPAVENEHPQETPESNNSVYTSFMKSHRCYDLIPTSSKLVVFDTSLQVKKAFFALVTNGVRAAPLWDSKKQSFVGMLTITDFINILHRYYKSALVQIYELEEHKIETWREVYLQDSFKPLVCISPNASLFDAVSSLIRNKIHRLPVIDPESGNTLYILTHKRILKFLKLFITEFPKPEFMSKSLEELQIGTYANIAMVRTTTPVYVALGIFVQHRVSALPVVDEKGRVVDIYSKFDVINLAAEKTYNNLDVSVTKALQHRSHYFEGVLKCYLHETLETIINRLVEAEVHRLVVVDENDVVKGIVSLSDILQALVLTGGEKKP
T6 sequence (Q13131 whole entry): as the sequence (Q13131 whole entry) above
T6 sequence (Q9Y478 whole entry): as the sequence (Q9Y478 whole entry) above
T6 sequence (P54619 whole entry): as the sequence (P54619 whole entry) above
T3 sequence (Q13131 whole entry): as the sequence (Q13131 whole entry) above
T3 sequence (O43741 whole entry): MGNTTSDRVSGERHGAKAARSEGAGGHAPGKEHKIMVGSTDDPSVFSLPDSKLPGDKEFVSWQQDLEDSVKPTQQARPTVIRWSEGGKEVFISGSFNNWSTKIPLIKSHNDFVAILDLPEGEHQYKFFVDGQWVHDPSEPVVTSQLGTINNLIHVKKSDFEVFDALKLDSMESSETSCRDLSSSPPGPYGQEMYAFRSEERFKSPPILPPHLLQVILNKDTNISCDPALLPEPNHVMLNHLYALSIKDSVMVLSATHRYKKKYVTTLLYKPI
T3 sequence (P54619 whole entry): as the sequence (P54619 whole entry) above
T9 sequence (Q13131 whole entry): as the sequence (Q13131 whole entry) above
T9 sequence (O43741 whole entry): as the sequence (O43741 whole entry) above
T9 sequence (P54619 whole entry): as the sequence (P54619 whole entry) above
T4 sequence (Q13131 whole entry): as the sequence (Q13131 whole entry) above
T4 sequence (O43741 whole entry): as the sequence (O43741 whole entry) above
T4 sequence (Q9UGI9 whole entry): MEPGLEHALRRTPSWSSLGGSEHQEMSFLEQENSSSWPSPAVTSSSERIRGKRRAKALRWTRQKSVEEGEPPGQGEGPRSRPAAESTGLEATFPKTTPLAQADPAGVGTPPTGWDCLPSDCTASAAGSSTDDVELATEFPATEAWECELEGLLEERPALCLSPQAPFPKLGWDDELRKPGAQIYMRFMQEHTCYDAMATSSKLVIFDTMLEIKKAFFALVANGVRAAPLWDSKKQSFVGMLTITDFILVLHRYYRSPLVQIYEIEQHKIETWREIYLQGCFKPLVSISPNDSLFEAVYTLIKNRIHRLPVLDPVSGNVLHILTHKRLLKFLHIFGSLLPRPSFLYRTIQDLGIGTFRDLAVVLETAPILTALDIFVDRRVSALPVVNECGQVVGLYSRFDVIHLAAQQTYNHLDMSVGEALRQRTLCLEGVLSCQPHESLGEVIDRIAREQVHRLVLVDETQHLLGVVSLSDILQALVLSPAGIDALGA
T10 sequence (P54646 whole entry): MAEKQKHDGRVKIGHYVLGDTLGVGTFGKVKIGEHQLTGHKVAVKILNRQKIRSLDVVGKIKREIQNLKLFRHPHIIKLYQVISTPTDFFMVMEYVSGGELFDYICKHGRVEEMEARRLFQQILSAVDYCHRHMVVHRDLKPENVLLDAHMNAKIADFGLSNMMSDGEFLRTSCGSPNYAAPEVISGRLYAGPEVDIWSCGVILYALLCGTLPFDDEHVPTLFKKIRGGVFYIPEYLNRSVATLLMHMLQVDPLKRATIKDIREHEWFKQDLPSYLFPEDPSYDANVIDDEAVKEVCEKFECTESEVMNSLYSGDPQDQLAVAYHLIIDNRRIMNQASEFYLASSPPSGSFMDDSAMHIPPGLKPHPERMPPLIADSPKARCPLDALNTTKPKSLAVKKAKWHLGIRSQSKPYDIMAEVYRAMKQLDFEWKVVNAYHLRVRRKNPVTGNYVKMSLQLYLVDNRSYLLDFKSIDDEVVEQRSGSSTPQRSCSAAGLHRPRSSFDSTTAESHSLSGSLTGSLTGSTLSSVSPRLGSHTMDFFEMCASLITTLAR
T10 sequence (O43741 whole entry): as the sequence (O43741 whole entry) above
T10 sequence (Q9UGI9 whole entry): as the sequence (Q9UGI9 whole entry) above
T8 sequence (P54646 whole entry): as the sequence (P54646 whole entry) above
T8 sequence (O43741 whole entry): as the sequence (O43741 whole entry) above
T8 sequence (P54619 whole entry): as the sequence (P54619 whole entry) above
T1 sequence (P54646 whole entry): as the sequence (P54646 whole entry) above
T1 sequence (O43741 whole entry): as the sequence (O43741 whole entry) above
T1 sequence (Q9UGI9 whole entry): as the sequence (Q9UGI9 whole entry) above
T5 sequence (P54646 whole entry): as the sequence (P54646 whole entry) above
T5 sequence (O43741 whole entry): as the sequence (O43741 whole entry) above
T5 sequence (P54619 whole entry): as the sequence (P54619 whole entry) above
T2 sequence (P54646 whole entry): as the sequence (P54646 whole entry) above
T2 sequence (Q9Y478 whole entry): as the sequence (Q9Y478 whole entry) above
T2 sequence (P54619 whole entry): as the sequence (P54619 whole entry) above

In the case of `N#Cc1c(O)c2c(-c3ccc(-c4ccccc4O)cc3)csc2[nH]c1=O` [A769662], the EC50 in test [1] (setting [17]) was 5.6 µM; in [3] (setting [17]), 4.7 µM; in test [4] (setting [17]) it was greater than 40 µM; in [5] (setting [17]) it was 2.32 µM; in test [6] (setting [17]) it was 0.046 µM. Also, the “protection of α-pThr172/174 from PP2Aα” value in [1] (setting [18]), in test [2] (setting [18]), in [3] (setting [18]), in test [4] (setting [18]), in [5] (setting [18]) and in test [6] (setting [18]) was greater than 70% each time. Further, the “enhanced protection of pThr172 compared with AMP” value in [2] amounted to 3 fold; in test [6] it was 10 fold. Besides, the Kd was 0.048 µM in test [7] and 0.03 µM in test [8] (in the presence of 150 μM AMP, n=1, read-out: KD). Moreover, in test [9] (in the presence of 150 μM AMP, 37-1000 nM), the SPR binding entry was “negligible; also recorded: could not detect any binding”. The AC50 (usually the concentration giving half of the maximal activity seen) in test [10] was greater than 40 µM; in test [11], greater than 40 µM; in [12], greater than 40 µM; in test [13], greater than 40 µM; in [14], 0.0722 µM.

As for `Nc1ncnc2c1ncn2[C@@H]1O[C@H](COP(=O)(O)OP(=O)(O)O)[C@@H](O)[C@H]1O` [ADP], the Kd in test [15] (setting [19]) worked out at 15 ± 1 µM; in test [15] (setting [20]), 28.2 ± 0.3 µM; in [15] (setting [21]), 4.2 ± 0.2 µM; in test [15] (setting [22]), 2600 ± 400 µM; in test [16] (setting [19]), 12.5 ± 0.1 µM; in [16] (setting [20]) it was 19 ± 0.2 µM. Further, the Kd in [16] (setting [21]) came out at 11.2 ± 0.3 µM; in test [16] (setting [22]), 1500 ± 200 µM; in test [8] (setting [19]) it was 24.4 ± 0.4 µM; in test [8] (setting [20]), 33.3 ± 0.3 µM; in test [8] (setting [21]), 4.75 ± 0.08 µM; in [8] (setting [22]), 1010 ± 80 µM. For the same compound, the Kd in test [9] (setting [19]) was 11.9 ± 0.3 µM; in test [9] (setting [20]), 22.8 ± 0.5 µM; in [9] (setting [21]), 2.47 ± 0.09 µM; in test [9] (setting [22]), 2600 ± 300 µM.

Values taken from article PMC4764975, “Probing the enzyme kinetics, allosteric modulation and activation of α1- and α2-subunit-containing AMP-activated protein kinase (AMPK) heterotrimeric complexes by pharmacological and physiological activators” (Biochemical Journal, 2016).
